Laboratory results taken from EP4603105A1, “PHARMACEUTICAL COMPOSITION CONTAINING CYCLIC COMPOUND HAVING SELECTIVE KRAS INHIBITORY EFFECT AGAINST HRAS AND NRAS” (CHUGAI SEIYAKU KABUSHIKI KAISHA, priority 2022, dated 2024).
Where a SMILES comes first, the peptide text is derived from it. Bridges are numbered along the chain shown (N, C = ends). [ ]: non-standard residue; d: D form. The star is where a group is joined. hPhe(3-Cl-4-CF3) = N[C@@H](CCc1ccc(C(F)(F)F)c(Cl)c1)C(=O)O; NPrPhe(4-CF3) = CCCN[C@@H](Cc1ccc(C(F)(F)F)cc1)C(=O)O; Abu(4,4,4-F3) = N[C@@H](CC(F)(F)F)C(=O)O; NMeGly(cPent) = CN[C@H](C(=O)O)C1CCCC1; NMeD = CN[C@@H](CC(=O)O)C(=O)O; NMeL = CN[C@@H](CC(C)C)C(=O)O; Morpholide = C1CN(*)CCO1; Ac5c = NC1(C(=O)O)CCCC1; Aze = O=C(O)[C@@H]1CCN1; Sar = CNCC(=O)O

Assays:
[1] = target: GDP-bound NRAS wild-type protein (Homo sapiens, UniProt P01111); experiment: Binding to NRAS by surface plasmon resonance (SPR), KD and KD ratio to KRAS
Sequence of GDP-bound NRAS wild-type protein (P01111 whole entry): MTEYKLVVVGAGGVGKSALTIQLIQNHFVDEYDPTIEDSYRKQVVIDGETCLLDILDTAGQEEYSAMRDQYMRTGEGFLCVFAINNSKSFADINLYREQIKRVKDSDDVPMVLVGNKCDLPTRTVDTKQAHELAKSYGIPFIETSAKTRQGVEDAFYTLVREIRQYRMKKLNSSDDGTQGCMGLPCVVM
Outline: (§1)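 Affinity is measured by surface plasmon resonance at 30°C against captured, GDP-loaded RAS carrying a biotinylated Avi tag. Compounds are titrated by single-cycle kinetics, and KD comes from a 1:1 fit.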

[2] = system: human lung cancer strain NCI-H441; type: cell-based
Outline: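 Readout: […] after the ATP-based reagent. Compound: serial dilutions in dimethyl sulfoxide.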

HRAS wild-type protein = HRAS wild-type protein (Homo sapiens, UniProt P01112); experiment: Binding to HRAS by surface plasmon resonance (SPR), KD and KD ratio to KRAS
Sequence of HRAS wild-type protein (P01112 whole entry): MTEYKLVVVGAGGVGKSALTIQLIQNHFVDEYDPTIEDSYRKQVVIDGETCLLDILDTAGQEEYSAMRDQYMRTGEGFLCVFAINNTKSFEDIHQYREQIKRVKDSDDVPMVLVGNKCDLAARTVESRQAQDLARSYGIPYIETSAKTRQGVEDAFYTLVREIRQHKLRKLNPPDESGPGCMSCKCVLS
Outline: as §1

[3] = target: GDP-bound KRAS wild-type protein (Homo sapiens, UniProt P01116); experiment: Binding to KRAS by surface plasmon resonance (SPR), dissociation constant KD
Sequence of GDP-bound KRAS wild-type protein (P01116 1-188 isoform P01116-2): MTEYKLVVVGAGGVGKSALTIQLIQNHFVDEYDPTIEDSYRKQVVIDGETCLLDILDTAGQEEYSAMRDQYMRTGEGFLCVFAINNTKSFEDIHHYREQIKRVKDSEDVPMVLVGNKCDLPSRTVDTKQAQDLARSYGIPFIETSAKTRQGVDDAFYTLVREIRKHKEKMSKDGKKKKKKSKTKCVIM
Outline: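 Single-cycle kinetics on GDP-loaded biotin-Avi RAS captured to ~100–300 RU; 75 s ascending injections, 100 µL/min, 30°C. HBS pH 7.4 + 10 mM MgCl2/10 µM GDP/4% DMSO. 1:1 fit, KD.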

[4] = ratio of the KD value with respect to GDP-bound NRAS wild-type protein to the KD value with respect to KRAS
[5] = ratio of the KD value with respect to HRAS wild-type protein to the KD value with respect to KRAS
[6] = Single Cycle Kinetics, 1:1 binding model
[7] = ratio of KD for GDP-bound NRAS wild-type protein to KD for KRAS
[8] = ratio of KD for HRAS wild-type protein to KD for KRAS

| Structure (SMILES) | IC50 [2] | Kd [3, 6] | Kd ([3]; Single Cycle Kinetics) | Kd ([3]; 1:1 binding model) | NRAS /KRAS [1, 4] | HRAS /KRAS (HRAS wild-type protein; [5]) | NRAS /KRAS [1, 7] | HRAS /KRAS (HRAS wild-type protein; [8]) | NRAS /KRAS ([1]; ratio of KD value for GDP-bound NRAS wild-type protein to KD value for KRAS (SPR)) | HRAS /KRAS (HRAS wild-type protein; ratio of KD value for HRAS wild-type protein to KD value for KRAS (SPR)) |
| --- | --- | --- | --- | --- | --- | --- | --- | --- | --- | --- |
| CCO[C@@H]1C[C@H]2C(=O)NC3(CCC3)C(=O)N(C)[C@@H](C3CCCC3)C(=O)N(C)[C@H](C(=O)N3CCOCC3)CC(=O)N(C)[C@@H](CC(C)C)C(=O)N[C@@H]([C@@H](C)CC)C(=O)N(C)CC(=O)N(C)[C@H]3CCCCCN(C3=O)[C@@H](Cc3ccc(F)cc3)C(=O)N(C)CC(=O)N[C@@H](CCc3ccc(C(F)(F)F)c(Cl)c3)C(=O)N2C1 [PP0968] | 38.8 nM | – | 0.32 nM | – | – | – | B (a compound having 3 or more and less than 10 is denoted as B) | B (a compound having 3 or more and less than 10 is denoted as B) | – | – |
| CCCN1C(=O)CN(C)C(=O)[C@@H]2CCN2C(=O)[C@H](CC(F)(F)F)NC(=O)[C@H](CC(C)C)N(C)C(=O)C[C@@H](C(=O)N2CCOCC2)N(C)C(=O)[C@H](C2CCCC2)N(C)C(=O)C2(CCCC2)NC(=O)[C@@H]2CCCN2C(=O)[C@H](CCc2ccc(C(F)(F)F)c(Cl)c2)NC(=O)CN(C)C(=O)[C@@H]1Cc1ccc(C(F)(F)F)cc1 [PP0304] ([NMeL][Abu(4,4,4-F3)][Aze][Sar][NPrPhe(4-CF3)][Sar][hPhe(3-Cl-4-CF3)]P[Ac5c][NMeGly(cPent)][NMeD]-Morpholide; lactam N-11) | 112 nM | – | – | 1.9 nM | – | – | B (a compound having 3 or more and less than 10 is denoted as B) | B (a compound having 3 or more and less than 10 is denoted as B) | – | – |
| CCO[C@@H]1C[C@H]2C(=O)NC3(CCC3)C(=O)N(C)[C@@H](C3CCCC3)C(=O)N(C)[C@H](C(=O)N(C)C)CC(=O)N(C)[C@@H](CC3CCCC3)C(=O)N[C@@H]([C@@H](C)CC)C(=O)N(C)CC(=O)N(C)[C@H]3CCCCCN(C3=O)[C@@H](Cc3ccc(C(F)(F)F)cc3)C(=O)N(C)CC(=O)N[C@@H](CCc3cc(F)c(C(F)(F)F)c(F)c3)C(=O)N2C1 [PP0670] | 11.3 nM | 0.28 nM | – | – | B (a compound having 3 or more and less than 10 is denoted as B) | B (a compound having 3 or more and less than 10 is denoted as B) | – | – | – | – |
| CCO[C@@H]1C[C@H]2C(=O)NC3(CCC3)C(=O)N(C)[C@@H](C(CC)CC)C(=O)N(C)[C@H](C)CC(=O)N(C)[C@@H](CC(C)C)C(=O)N[C@@H]([C@@H](C)CC)C(=O)N(C)CC(=O)N(C)[C@H]3C/C=C\CCN(C3=O)[C@@H](Cc3ccc(F)cc3C)C(=O)N(C)CC(=O)N[C@@H](CCc3cc(F)c(C(F)(F)F)c(F)c3)C(=O)N2C1 [PP1524] | 439 nM | 5.7 nM | – | – | – | – | – | – | B (a compound having 3 or more and less than 10 is denoted as B) | B (a compound having 3 or more and less than 10 is denoted as B) |

Continued, in another order:

| IC50 [2] | Kd [3, 6] | Kd ([3]; Single Cycle Kinetics) | Kd ([3]; 1:1 binding model) | Structure (SMILES) | NRAS /KRAS [1, 4] | HRAS /KRAS (HRAS wild-type protein; [5]) | NRAS /KRAS [1, 7] | HRAS /KRAS (HRAS wild-type protein; [8]) | NRAS /KRAS ([1]; ratio of KD value for GDP-bound NRAS wild-type protein to KD value for KRAS (SPR)) | HRAS /KRAS (HRAS wild-type protein; ratio of KD value for HRAS wild-type protein to KD value for KRAS (SPR)) |
| --- | --- | --- | --- | --- | --- | --- | --- | --- | --- | --- |
| 14.2 nM | 0.098 nM | – | – | CCCOC[C@H]1C(=O)N[C@@H]([C@@H](C)CC)C(=O)N(C)CC(=O)N(C)[C@H]2C/C=C\CCN(C2=O)[C@@H](Cc2ccc(C(F)(F)F)cc2)C(=O)N(C)CC(=O)N[C@@H](CCc2ccc(C(F)(F)F)c(OC)c2)C(=O)N2C[C@@H](C)C[C@H]2C(=O)NC2(CC(C)(C)C2)C(=O)N(C)[C@@H](C2CCCC2)C(=O)N(C)[C@H](C(=O)N(C)C)CC(=O)N1C [PP1997] | A (a compound having 10 or more and less than 20 is denoted as A) | B (a compound having 3 or more and less than 10 is denoted as B) | – | – | – | – |
| 150 nM | – | – | 2.3 nM | CCO[C@@H]1C[C@H]2C(=O)NC3(CC(C)(C)C3)C(=O)N(C)[C@@H](C3CCCC3)C(=O)N(C)[C@H](C(=O)N(C)CC)CC(=O)N(C)[C@@H]([C@H](C)OC)C(=O)N[C@@H]([C@@H](C)CC)C(=O)N3CCC[C@H]3C(=O)N(C)[C@H]3C/C=C\CCN(C3=O)[C@@H](Cc3ccc(C)cc3)C(=O)N(C)CC(=O)N[C@@H](CCc3ccc(C(F)(F)F)c(OC)c3)C(=O)N2C1 [PP3161] | – | – | A (a compound having 10 or more and less than 20 is denoted as A) | A (a compound having 10 or more and less than 20 is denoted as A) | – | – |
| 83 nM | – | – | 3.7 nM | CCC[C@H]1C(=O)N[C@@H]([C@@H](C)CC)C(=O)N(C2CC2)CC(=O)N(C)[C@H]2C/C=C\CCN(C2=O)[C@@H](Cc2ccc(C)cc2)C(=O)N(C)CC(=O)N[C@@H](CCc2ccc(Cl)c(Cl)c2)C(=O)N2C[C@H](OCC)C[C@H]2C(=O)NC2(CC(C)(C)C2)C(=O)N(C)[C@@H](CC2CC2)C(=O)N(C)[C@H](C(=O)N(C)C)CC(=O)N1C [PP2805] | – | – | A (a compound having 10 or more and less than 20 is denoted as A) | A (a compound having 10 or more and less than 20 is denoted as A) | – | – |
